Reference: the supplement of paper PMC9663587

Each cell line was assayed with C=CC(=O)Nc1ccc(C(=O)Nc2[nH]nc3c2CN(C(=O)N[C@H](CN(C)C)c2ccccc2)C3(C)C)cc1 [YKL-5-124] (assay: increase in dead-cell fraction, 72 h; higher = more death). Conditions: 0.001 µM.
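Further: breast cancer cell lines in 384-well plates, stained with Hoechst plus LIVE/DEAD far red dye and imaged, cells above an LDR intensity threshold counted dead, Hoechst-negative corpses included.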

Cell Line | increase in dead-cell fraction
HCC1569 | 0.0331
HCC1806 | 0.0531
HCC1937 | 0.004
HCC1954 | 0.076
HS578T | 0.0377

Same assay, conditions: 0.003162 µM

Cell Line | increase in dead-cell fraction
HCC1569 | 0.014
HCC1806 | 0.0858
HCC1937 | 0.0243
HCC1954 | 0.0781
HS578T | 0.0487

Same assay, conditions: 0.01 µM

Cell Line | increase in dead-cell fraction
HCC1569 | -0.0042
HCC1806 | 0.134
HCC1937 | 0.0426
HCC1954 | 0.11
HS578T | 0.0429

Same assay, conditions: 0.03162 µM

Cell Line | increase in dead-cell fraction
HCC1569 | 0.0104
HCC1806 | 0.202
HCC1937 | 0.0331
HCC1954 | 0.0779
HS578T | 0.127

Same assay, conditions: 0.1 µM

Cell Line | increase in dead-cell fraction
HCC1569 | -0.0403
HCC1806 | 0.196
HCC1937 | 0.0403
HCC1954 | 0.129
HS578T | 0.139

Same assay, conditions: 0.3162 µM

Cell Line | increase in dead-cell fraction
HCC1569 | 0.0447
HCC1806 | 0.264
HCC1937 | 0.0391
HCC1954 | 0.104
HS578T | 0.155

Same assay, conditions: 1 µM

Cell Line | increase in dead-cell fraction
HCC1569 | 0.0404
HCC1806 | 0.331
HCC1937 | 0.0843
HCC1954 | 0.102
HS578T | 0.13

Same assay, conditions: 3.162 µM

Cell Line | increase in dead-cell fraction
HCC1569 | 0.0237
HCC1806 | 0.322
HCC1937 | 0.0582
HCC1954 | 0.0854
HS578T | 0.125

Same assay, conditions: 10 µM

Cell Line | increase in dead-cell fraction
HCC1569 | 0.151
HCC1806 | 0.538
HCC1937 | 0.0895
HCC1954 | 0.15
HS578T | 0.492

These cell lines were tested with CC(=O)c1c(C)c2cnc(Nc3ccc(N4CCN(CCOCCOCCOCCNC(=O)COc5cccc6c5C(=O)N(C5CCC(=O)NC5=O)C6=O)CC4)cn3)nc2n(C2CCCC2)c1=O [BSJ-03-123] in the same assay as above. Conditions: 0.001 µM.

Cell Line | increase in dead-cell fraction
HCC1569 | 0.0046
HCC1806 | 0.0017
HCC1937 | 0.001
HCC1954 | 0.0014
HS578T | 0.0192

Same assay, conditions: 0.003162 µM

Cell Line | increase in dead-cell fraction
HCC1569 | -0.0135
HCC1806 | 0.0008
HCC1937 | -0.0071
HCC1954 | 0.0109
HS578T | 0.0459

Same assay, conditions: 0.01 µM

Cell Line | increase in dead-cell fraction
HCC1569 | 0.0005
HCC1806 | -0.0016
HCC1937 | 0.0079
HCC1954 | 0.0001
HS578T | 0.0053

Same assay, conditions: 0.03162 µM

Cell Line | increase in dead-cell fraction
HCC1569 | 0.0168
HCC1806 | -0.0015
HCC1937 | 0
HCC1954 | 0.004
HS578T | 0.0194

Same assay, conditions: 0.1 µM

Cell Line | increase in dead-cell fraction
HCC1569 | 0.002
HCC1806 | 0.0039
HCC1937 | 0.0032
HCC1954 | 0.0138
HS578T | 0.0184

Same assay, conditions: 0.3162 µM

Cell Line | increase in dead-cell fraction
HCC1569 | 0.0007
HCC1806 | 0.0061
HCC1937 | -0.0022
HCC1954 | 0.0101
HS578T | 0.0238

Same assay, conditions: 1 µM

Cell Line | increase in dead-cell fraction
HCC1569 | 0.0247
HCC1806 | 0.0075
HCC1937 | -0.0018
HCC1954 | 0.0096
HS578T | 0.034

Same assay, conditions: 3.162 µM

Cell Line | increase in dead-cell fraction
HCC1569 | 0.0066
HCC1806 | 0.0235
HCC1937 | -0.0018
HCC1954 | 0.0252
HS578T | 0.0445

Same assay, conditions: 10 µM

Cell Line | increase in dead-cell fraction
HCC1569 | 0.0866
HCC1806 | 0.152
HCC1937 | 0.0245
HCC1954 | 0.141
HS578T | 0.267

Each cell line was assayed with CC(=O)c1c(C)c2cnc(Nc3ccc(N4CCNCC4)cn3)nc2n(C2CCCC2)c1=O in the same assay as above. Conditions: 0.0003162 µM.

Cell Line | increase in dead-cell fraction
HCC1569 | 0.0023
HCC1806 | 0.0005
HCC1937 | -0.0018
HCC1954 | -0.0089
HS578T | -0.0068

Same assay, conditions: 0.001 µM

Cell Line | increase in dead-cell fraction
HCC1569 | -0.0102
HCC1806 | 0.0026
HCC1937 | -0.0051
HCC1954 | -0.001
HS578T | 0.0083

Same assay, conditions: 0.003162 µM

Cell Line | increase in dead-cell fraction
HCC1569 | 0.0038
HCC1806 | 0.0009
HCC1937 | 0.0021
HCC1954 | -0.0131
HS578T | 0.0012

Same assay, conditions: 0.01 µM

Cell Line | increase in dead-cell fraction
HCC1569 | 0.0052
HCC1806 | -0.0004
HCC1937 | 0.0002
HCC1954 | -0.0027
HS578T | 0.0138

Same assay, conditions: 0.03162 µM

Cell Line | increase in dead-cell fraction
HCC1569 | -0.0056
HCC1806 | 0.0094
HCC1937 | -0.0009
HCC1954 | -0.0121
HS578T | 0.0151

Same assay, conditions: 0.1 µM

Cell Line | increase in dead-cell fraction
HCC1569 | -0.0096
HCC1806 | 0.0238
HCC1937 | -0.0009
HCC1954 | -0.0026
HS578T | 0.0427

Same assay, conditions: 0.3162 µM

Cell Line | increase in dead-cell fraction
HCC1569 | 0.0042
HCC1806 | 0.0157
HCC1937 | -0.0038
HCC1954 | -0.0021
HS578T | 0.052

Same assay, conditions: 1 µM

Cell Line | increase in dead-cell fraction
HCC1569 | 0.0001
HCC1806 | 0.0237
HCC1937 | -0.0027
HCC1954 | -0.0019
HS578T | 0.0736

Same assay, conditions: 3.162 µM

Cell Line | increase in dead-cell fraction
HCC1569 | -0.0109
HCC1806 | 0.0046
HCC1937 | -0.0018
HCC1954 | 0.0043
HS578T | 0.116
